The source of these data is US20230339970A1, “CASEIN KINASE 1 DELTA MODULATORS” (priority 2020, published 2023).

One assay deals with T1, human CSNK1D (Homo sapiens, UniProt P48730).
T1 construct: expressed in transfected cells
As to the kind of experiment: Whole Cell nBRET CSNK1D Binding Assay. The note with it: living CHO cells stably expressing human CSNK1D tagged with nanoluciferase; NanoBret tracer 130 nM; 2 hours at 37 C.

In assay [1] the target is T2, human recombinant GST cleaved CSNK1D (Homo sapiens, UniProt P48730).
T2 construct: GST (cleaved yes); purchased University of Dundee clone DU 19064
Description: Purified Enzyme Assay (ADP-Glo CSNK1D Kinase Assay). It is filed as biochemical. The conditions noted are these: 2 nM CSNK1D; peptide substrate 150 μM; ATP 20 μM; 45 minutes at room temperature. A digest of the protocol:
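Percent activity derived from ADP-Glo quantification of ADP produced. Reactions: compound dose-response with human recombinant GST-cleaved CSNK1D, ATP and substrate peptide PLSRTL-pS-VASLPGL, incubated 45 min at room temperature.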

In general, IC50 refers to the concentration that gives 50% inhibition.

T2 sequence (P48730 whole entry): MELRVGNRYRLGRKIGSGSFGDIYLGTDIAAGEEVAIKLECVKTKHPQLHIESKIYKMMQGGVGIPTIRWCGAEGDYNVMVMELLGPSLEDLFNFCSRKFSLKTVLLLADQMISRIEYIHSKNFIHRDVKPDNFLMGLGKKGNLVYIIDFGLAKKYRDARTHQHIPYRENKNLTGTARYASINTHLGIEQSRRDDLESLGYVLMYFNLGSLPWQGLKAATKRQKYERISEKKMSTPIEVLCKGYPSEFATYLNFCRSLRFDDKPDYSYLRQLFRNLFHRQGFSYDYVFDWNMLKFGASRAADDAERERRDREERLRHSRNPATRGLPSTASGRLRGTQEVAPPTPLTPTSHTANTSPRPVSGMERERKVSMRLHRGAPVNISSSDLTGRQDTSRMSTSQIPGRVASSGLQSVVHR
T1 sequence (P48730 whole entry): as above

For the compound `Fc1ccc(-c2nn3c(c2-c2c(F)cnc4[nH]ncc24)OC[C@H]2C[C@H]2C3)nc1` (stereo in doubt) [Example 481, (5a*S,6a*R)-3-(5-Fluoro-1H-pyrazolo[3,4-b]pyridin-4-yl)-2-(5-fluoropyridin-2-yl)-5a,6,6a,7-tetrahydro-5H-cyclopropa[e]pyrazolo[5,1-b][1,3]oxazepine], the figures for the half-inhibitory concentration (IC50) (at human CSNK1D; in assay [1]) were 65 nM and 6 nM, respectively.
Turning to `Cc1nc2[nH]ncc2c(-c2c(-c3ccc(F)cn3)nn3c2OC[C@H]2C[C@H]2C3)c1F` (stereo in doubt) [Example 482, (5a*R,6a*S)-3-(5-Fluoro-6-methyl-1H-pyrazolo[3,4-b]pyridin-4-yl)-2-(5-fluoropyridin-2-yl)-5a,6,6a,7-tetrahydro-5H-cyclopropa[e]pyrazolo[5,1-b][1,3]oxazepine], the IC50 on human CSNK1D was found to be 79 nM; in assay [1], 8 nM.
As for `Cc1nc2[nH]ncc2c(-c2c(-c3ccc(F)cn3)nn3c2OC[C@@H]2C[C@@H]2C3)c1F` (stereo in doubt) [Example 483, (5a*S,6a*R)-3-(5-Fluoro-6-methyl-1H-pyrazolo[3,4-b]pyridin-4-yl)-2-(5-fluoropyridin-2-yl)-5a,6,6a,7-tetrahydro-5H-cyclopropa[e]pyrazolo[5,1-b][1,3]oxazepine], the values for the 50% inhibitory concentration (IC50) (at human CSNK1D; in assay [1]) were 48 nM and 5 nM, respectively.
On the same counts, the results for `Fc1ccc(-c2nn3c(c2-c2ccnc4[nH]ccc24)COCC3)nc1` [Example 1, 2-(5-Fluoro-2-pyridyl)-3-(1H-pyrrolo[2,3-b]pyridin-4-yl)-6,7-dihydro-4H-pyrazolo[5,1-c][1,4]oxazine] are 81 nM and 10 nM.
On the same counts, the results for `Cc1cc(-c2c(-c3ccc(F)cn3)nn3c2CNCC3)c2cn[nH]c2n1` [Example 2, 4-[2-(5-Fluoro-2-pyridyl)-4,5,6,7-tetrahydropyrazolo[1,5-a]pyrazin-3-yl]-6-methyl-1H-pyrazolo[3,4-b]pyridine] are 528 nM and 19 nM.
On to `Fc1ccc(-c2nn3c(c2-c2ccnc4[nH]ccc24)CCCC3)nc1` [Example 3, 4-[2-(5-Fluoro-2-pyridyl)-4,5,6,7-tetrahydropyrazolo[1,5-a]pyridin-3-yl]-1H-pyrrolo[2,3-b]pyridine], for which the IC50 stood at 41 nM on human CSNK1D and 8 nM in assay [1].
Take `Fc1ccc(-c2nn3c(c2-c2ccnc4[nH]ncc24)CCC3)cc1` [Example 4, 4-(2-(4-Fluorophenyl)-5,6-dihydro-4H-pyrrolo[1,2-b]pyrazol-3-yl)-1H-pyrazolo[3,4-b]pyridine]: the IC50 on human CSNK1D was 22 nM; in assay [1], 1 nM.
As for `Cc1cc(-c2c(-c3ccc(F)cc3)nn3c2CCC3)c2cn[nH]c2n1` [Example 5, 4-(2-(4-Fluorophenyl)-5,6-dihydro-4H-pyrrolo[1,2-b]pyrazol-3-yl)-6-methyl-1H-pyrazolo[3,4-b]pyridine], the IC50 at human CSNK1D was determined as 22 nM; in assay [1] it was 1 nM.
Take `Fc1ccc(-c2nn3c(c2-c2ccnc4[nH]ccc24)CCC3)nc1` [Example 6, 4-(2-(5-Fluoropyridin-2-yl)-5,6-dihydro-4H-pyrrolo[1,2-b]pyrazol-3-yl)-1H-pyrrolo[2,3-b]pyridine]: the results for the IC50 (at human CSNK1D; in assay [1]) were 35 nM and 1 nM, respectively.
Take `Fc1ccc(-c2nn3c(c2-c2ccnc4[nH]ncc24)CCC3)nc1` [Example 7, 4-[2-(5-Fluoro-2-pyridyl)-5,6-dihydro-4H-pyrrolo[1,2-b]pyrazol-3-yl]-1H-pyrazolo[3,4-b]pyridine]: the IC50 on human CSNK1D is 136 nM; in assay [1], 7 nM.
On the same counts, the results for `Cc1cc(-c2c(-c3ccc(F)cn3)nn3c2CCC3)c2cn[nH]c2n1` [Example 8, 4-[2-(5-Fluoro-2-pyridyl)-5,6-dihydro-4H-pyrrolo[1,2-b]pyrazol-3-yl]-6-methyl-1H-pyrazolo[3,4-b]pyridine] are 87 nM and 4 nM.
On the same counts, the results for `Cc1nc2[nH]ncc2c(-c2c(-c3ccc(F)cn3)nn3c2CCC3)c1F` [Example 9, 5-Fluoro-4-(2-(5-fluoropyridin-2-yl)-5,6-dihydro-4H-pyrrolo[1,2-b]pyrazol-3-yl)-6-methyl-1H-pyrazolo[3,4-b]pyridine] are 60 nM and 12 nM.
For `Nc1cc(-c2c(-c3ccc(F)cc3)nn3c2C[C@H](F)C3)ccn1` [Example 10, (S)-4-(5-Fluoro-2-(4-fluorophenyl)-5,6-dihydro-4H-pyrrolo[1,2-b]pyrazol-3-yl)pyridin-2-amine], the IC50 was 14 nM on human CSNK1D and 1 nM in assay [1].
Regarding `Fc1ccc(-c2nn3c(c2-c2ccnc4[nH]ncc24)C[C@H](F)C3)cc1` [Example 11, (S)-4-(5-Fluoro-2-(4-fluorophenyl)-5,6-dihydro-4H-pyrrolo[1,2-b]pyrazol-3-yl)-1H-pyrazolo[3,4-b]pyridine], the half-inhibitory concentration (IC50) on human CSNK1D was 4 nM; in assay [1], 1 nM.
On the same counts, the results for `Cc1cc(-c2c(-c3ccc(F)cc3)nn3c2C[C@H](F)C3)c2cn[nH]c2n1` [Example 12, (S)-4-(5-Fluoro-2-(4-fluorophenyl)-5,6-dihydro-4H-pyrrolo[1,2-b]pyrazol-3-yl)-6-methyl-1H-pyrazolo[3,4-b]pyridine] are 2 nM and 1 nM.
For the compound `Cc1cc(-c2c(-c3ccc(F)cn3)nn3c2CC(F)C3)c2cn[nH]c2n1` (centres unmarked) [Example 13, 4-(5-Fluoro-2-(5-fluoropyridin-2-yl)-5,6-dihydro-4H-pyrrolo[1,2-b]pyrazol-3-yl)-6-methyl-1H-pyrazolo[3,4-b]pyridine], the IC50 worked out at 671 nM on human CSNK1D and 29 nM in assay [1].
`Fc1ccc(-c2nn3c(c2-c2ccnc4[nH]ncc24)C(F)(F)CC3)nc1` [Example 14, 4-(4,4-Difluoro-2-(5-fluoropyridin-2-yl)-5,6-dihydro-4H-pyrrolo[1,2-b]pyrazol-3-yl)-1H-pyrazolo[3,4-b]pyridine]: the half-inhibitory concentration (IC50) on human CSNK1D turned out to be 293 nM; in assay [1], 27 nM.
Take `C[C@H]1CCc2c(-c3ccnc4[nH]ncc34)c(-c3ccc(F)cc3)nn21` [Example 15, 4-[(6S)-2-(4-Fluorophenyl)-6-methyl-5,6-dihydro-4H-pyrrolo[1,2-b]pyrazol-3-yl]-1H-pyrazolo[3,4-b]pyridine]: the half-maximal inhibitory concentration (IC50) was 12 nM on human CSNK1D and 1 nM in assay [1].
On to `C[C@@H]1CCc2c(-c3ccnc4[nH]ncc34)c(-c3ccc(F)cc3)nn21` [Example 16, 4-[(6R)-2-(4-Fluorophenyl)-6-methyl-5,6-dihydro-4H-pyrrolo[1,2-b]pyrazol-3-yl]-1H-pyrazolo[3,4-b]pyridine], for which the concentration for half-maximal inhibition (IC50) at human CSNK1D is 51 nM; in assay [1] it was 4 nM.
Turning to `Cc1cc(-c2c(-c3ccc(F)cc3)nn3c2CC[C@@H]3C)c2cn[nH]c2n1` [Example 17, 4-[(6S)-2-(4-Fluorophenyl)-6-methyl-5,6-dihydro-4H-pyrrolo[1,2-b]pyrazol-3-yl]-6-methyl-1H-pyrazolo[3,4-b]pyridine], the concentration for half-maximal inhibition (IC50) at human CSNK1D was determined as 12 nM; in assay [1], 1 nM.
In the case of `Cc1cc(-c2c(-c3ccc(F)cc3)nn3c2CC[C@H]3C)c2cn[nH]c2n1` [Example 18, 4-[(6R)-2-(4-Fluorophenyl)-6-methyl-5,6-dihydro-4H-pyrrolo[1,2-b]pyrazol-3-yl]-6-methyl-1H-pyrazolo[3,4-b]pyridine], the results for the half-maximal inhibitory concentration (IC50) (on human CSNK1D; in assay [1]) were 19 nM and 2 nM, respectively.
Turning to `C[C@H]1CCc2c(-c3ccnc4[nH]ncc34)c(-c3ccc(F)cn3)nn21` [Example 19, 4-[(6S)-2-(5-Fluoro-2-pyridyl)-6-methyl-5,6-dihydro-4H-pyrrolo[1,2-b]pyrazol-3-yl]-1H-pyrazolo[3,4-b]pyridine], the half-inhibitory concentration (IC50) on human CSNK1D was 192 nM; in assay [1] it was 8 nM.
`C[C@@H]1CCc2c(-c3ccnc4[nH]ncc34)c(-c3ccc(F)cn3)nn21` [Example 20, 4-[(6R)-2-(5-Fluoro-2-pyridyl)-6-methyl-5,6-dihydro-4H-pyrrolo[1,2-b]pyrazol-3-yl]-1H-pyrazolo[3,4-b]pyridine]: the IC50 on human CSNK1D came out at 411 nM; in assay [1], 20 nM.
On the same counts, the results for `Cc1cc(-c2c(-c3ccc(F)cn3)nn3c2CC[C@H]3C)c2cn[nH]c2n1` [Example 21, 4-[(6R)-2-(5-Fluoro-2-pyridyl)-6-methyl-5,6-dihydro-4H-pyrrolo[1,2-b]pyrazol-3-yl]-6-methyl-1H-pyrazolo[3,4-b]pyridine] are 353 nM and 14 nM.
Consider `COc1ccc2nccc(-c3c(-c4ccc(F)cn4)nn4c3CC[C@@H]4C)c2n1` [Example 22, 8-[(6S)-2-(5-Fluoro-2-pyridyl)-6-methyl-5,6-dihydro-4H-pyrrolo[1,2-b]pyrazol-3-yl]-2-methoxy-1,5-naphthyridine], for which the IC50 was 345 nM at human CSNK1D and 23 nM in assay [1].
With `Fc1ccc(-c2nn3c(c2-c2ccnc4[nH]ncc24)C[C@H]2C[C@H]23)nc1` [Example 25, (4aR,5aR)-2-(5-Fluoropyridin-2-yl)-3-(1H-pyrazolo[3,4-b]pyridin-4-yl)-4,4a,5,5a-tetrahydrocyclopropa[4,5]pyrrolo[1,2-b]pyrazole], the half-maximal inhibitory concentration (IC50) worked out at 672 nM on human CSNK1D and 49 nM in assay [1].
As to `Fc1ccc(-c2nn3c(c2-c2ccnc4[nH]ncc24)C[C@@H]2C[C@@H]23)nc1` [Example 26, (4aS,5aS)-2-(5-Fluoropyridin-2-yl)-3-(1H-pyrazolo[3,4-b]pyridin-4-yl)-4,4a,5,5a-tetrahydrocyclopropa[4,5]pyrrolo[1,2-b]pyrazole], the IC50 at human CSNK1D came to 32 nM; in assay [1] it was 4 nM.
Regarding `Cc1cc(-c2c(-c3ccc(F)cn3)nn3c2C[C@H]2C[C@H]23)c2cn[nH]c2n1` [Example 27, (4aR,5aR)-2-(5-Fluoropyridin-2-yl)-3-(6-methyl-1H-pyrazolo[3,4-b]pyridin-4-yl)-4,4a,5,5a-tetrahydrocyclopropa[4,5]pyrrolo[1,2-b]pyrazole], the IC50 was determined as 434 nM on human CSNK1D and 41 nM in assay [1].
